Results as given in patent US11180452B2, “Methods and compositions for selectively inhibiting pathogenic microbes” (priority 2019, dated 2021).
≈ marks a conversion by molar mass, not a printed value. Read-outs that look alike come from different tables or passages of the source.

Columns and labels:
[1] = test system: cell wall synthesis of S. aureus; assay: Macromolecular synthesis assay, glucosamine incorporation into cell wall; format: cell-based; details: dose-response, FIG. 2A-2B
Trichophyton rubrum = assay: MIC against Trichophyton rubrum; format: cell-based
NoSpin HepaRG cells = assay: HepaRG cytotoxicity, MTT assay EC50; format: cell-based, human; details: Homo sapiens, HepaRG; cytotoxicity EC50, Table 9
Description: (§1) Additionally, the antimicrobial compounds were analyzed for cytotoxicity. […] We utilized the standard MTT assay (Promega CellTiter 96) and GraphPad Prism 7 software to determine EC50 values for each analogue. Briefly, 20,000 HepG2 cells in 200 μl of the ATCC recommended media were seeded in each well of a 96-well plate with a moisture barrier created in the outermost wells. The cells were allowed to attach overnight at 37° C., and then observed under phase contrast microscopy for proper morphological characteristics. […] Once incubations were complete, the spectrophotometric absorbance of the samples was measured at a wavelength of 595 nm. […] For the HepaRG assay, NoSpin HepaRG™ cells (Lonza, cat #NSHPRG) were thawed and plated with 20,000 cells per well. They were allowed to attach for 4 h (optimal DME profile per Lonza's testing) before dosing following the identical protocol as above.

Bacillus subtilis = Bacillus subtilis MIC / MBC; format: cell-based; details: for MBC: Bacillus subtilis NRRL: B-571, minimum bactericidal concentration; for MIC: Bacillus subtilis
Bacillus thuringiensis = format: cell-based; details: for MIC: Bacillus thuringiensis
[2] = test system: Burkholderia thailandensis Brett et al ATCC: 700388; assay: microbe, parasite or virus in culture; format: cell-based
Candida glabrata = Candida glabrata MIC / MFC; format: cell-based; details: Nakaseomyces glabratus; for MFC: read-out: MFC; for MIC: read-out: MIC
[3] = test system: Francisella tularensis subsp. Holarctica Strain LVSR NR-597; assay: microbe, parasite or virus in culture; format: cell-based
N. gonorrhoeae = N. gonorrhoeae MIC; format: cell-based; details: Neisseria gonorrhoeae
[4] = test system: Francisella tularensis strains; assay: microbe, parasite or virus in culture; format: cell-based
[5] = test system: Staphylococcus aureus (SA); assay: MIC against pathogen Staphylococcus aureus (Table 1); format: cell-based; details: read-out: Pathogens MIC Staphylococcus aureus (SA)
Roseomonas mucosa (RM) = assay: MIC against skin commensal Roseomonas mucosa; format: cell-based; details: read-out: Skin Commensals MIC Roseomonas mucosa (RM)
[6] = test system: Staphylococcus epidermidis (SE); assay: MIC against skin commensal Staphylococcus epidermidis; format: cell-based; details: read-out: Skin Commensals MIC Staphylococcus epidermidis (SE)
[7] = HepaRG cytotoxicity, MTT assay EC50; format: cell-based, human; details: human, NoSpin HepaRG cells
Description: as §1

C. albicans = assay: Candida albicans MIC / MFC; format: cell-based
HepG2 cells = assay: SYTOX assay on HepG2 cells; format: cell-based; details: staining in treated cells
[8] = MIC with and without 2-ketobutyrate (synergy); format: cell-based
[9] = Trichophyton rubrum Castellani Sabouraud ATCC: 28188, read-out: MIC
[10] = Bacillus subtilis (Ehrenberg 1835) Cohn 1872 NRRL: B-571, read-out: MIC
[11] = Bacillus thuringiensis Berliner ATCC: 10792
[12] = Bacillus thuringiensis Berliner ATCC: 10792, read-out: MIC
[13] = Candida glabrata #584 (Table 2), minimum fungicidal concentration
[14] = Candida glabrata #584 (Table 2)
[15] = read-out: F. tularensis BSL-3 MIC, Strain 100
[16] = read-out: F. tularensis BSL-3 MIC, strain HN-63
[17] = read-out: F. tularensis BSL-3 MIC, strain LVS
[18] = read-out: F. tularensis BSL-3 MIC, strain MA00-2987
[19] = read-out: F. tularensis BSL-3 MIC, strain MO #1
[20] = read-out: F. tularensis BSL-3 MIC, strain MO #2
[21] = read-out: F. tularensis BSL-3 MIC, strain MO #3
[22] = read-out: F. tularensis BSL-3 MIC, strain OR-96
[23] = read-out: F. tularensis BSL-3 MIC, strain SCHU S4
[24] = read-out: F. tularensis BSL-3 MIC, strain WY-96
[25] = read-out: MAX, highest MIC over the Francisella tularensis strains
[26] = read-out: MIN, lowest MIC over the Francisella tularensis strains
[27] = strain B-571 (Table 4), read-out: Bacillus subtilis MIC
[28] = strain B-1985, read-out: Bacillus subtilis MIC
[29] = strain B-3665, read-out: Bacillus subtilis MIC
[30] = strain B-14322, read-out: Bacillus subtilis MIC
[31] = strain B-41090, read-out: Bacillus subtilis MIC
[32] = strain BD-594, read-out: Bacillus subtilis MIC
[33] = C. glabrata strain #584 (Table 7)
[34] = C. albicans strain #761, read-out: MFC
[35] = C. albicans strain #761, read-out: MIC
[36] = C. albicans strain #762, read-out: MFC
[37] = C. albicans strain #762, read-out: MIC

Compound: CN[C@H](CC(C)C)C(=O)N[C@H]1C(=O)N[C@@H](CC(N)=O)C(=O)N[C@H]2C(=O)N[C@H]3C(=O)N[C@H](C(=O)N[C@H](C(=O)O)c4cc(O)cc(O)c4-c4cc3ccc4O)[C@H](O)c3ccc(c(Cl)c3)Oc3cc2cc(c3O[C@@H]2O[C@H](CO)[C@@H](O)[C@H](O)[C@H]2O[C@H]2C[C@](C)(N)[C@H](O)[C@H](C)O2)Oc2ccc(cc2Cl)[C@H]1O [vancomycin, reference compound]
- cell wall synthesis inhibition (glucosamine incorporation) [1]: increasingly inhibits glucosamine from incorporating into a cell wall

Compound: COc1ccc2[nH]cc(Sc3ccc(Br)cc3)c2c1 [Compound 172E, 3-((4-bromophenyl)thio)-5-methoxy-1H-indole]
- MIC (Trichophyton rubrum; [9]): 2.08 µg/mL (≈ 6.22 µM)
- EC50 (NoSpin HepaRG cells): 23.3 µg/mL (≈ 69.7 µM)
- MBC (Bacillus subtilis): 6.25 µg/mL (≈ 18.7 µM)
- MIC (Bacillus subtilis; [10]): 1.56 µg/mL (≈ 4.67 µM)
- MBC (Bacillus thuringiensis; [11]): 12.5 µg/mL (≈ 37.4 µM)
- MIC (Bacillus thuringiensis; [12]): 1.56 µg/mL (≈ 4.67 µM)
- MIC [2]: > 50 µg/mL
- MFC (Candida glabrata; [13]): > 50 µg/mL
- MIC (Candida glabrata; [14]): 6.25 µg/mL (≈ 18.7 µM)
- MIC [3]: 0.78 µg/mL (≈ 2.33 µM)
- MIC (N. gonorrhoeae; strain #167): < 0.39 µg/mL
- MIC (N. gonorrhoeae; strain #203): 3.13 µg/mL (≈ 9.36 µM)
- MIC (N. gonorrhoeae; strain #205): 3.13 µg/mL (≈ 9.36 µM)
- MIC50 [4]: 8 µg/mL (≈ 23.9 µM)
- MIC [4, 15]: > 8 µg/mL
- MIC [4, 16]: 8 µg/mL (≈ 23.9 µM)
- MIC [4, 17]: > 8 µg/mL
- MIC [4, 18]: 8 µg/mL (≈ 23.9 µM)
- MIC [4, 19]: 5.33 µg/mL (≈ 15.9 µM)
- MIC [4, 20]: 3.33 µg/mL (≈ 9.96 µM)
- MIC [4, 21]: 8 µg/mL (≈ 23.9 µM)
- MIC [4, 22]: 8 µg/mL (≈ 23.9 µM)
- MIC [4, 23]: 4 µg/mL (≈ 12 µM)
- MIC [4, 24]: > 8 µg/mL
- MIC [4, 25]: > 8 µg/mL
- MIC [4, 26]: 3.33 µg/mL (≈ 9.96 µM)

Compound: Nc1ccccc1Sc1c[nH]c2ccc(Br)cc12 [Compound 174M, 2-((5-bromo-1H-indol-3-yl)thio)aniline]
- MIC [5]: 2 µg/mL (≈ 6.27 µM)
- MIC (Trichophyton rubrum; [9]): 0.99 µg/mL (≈ 3.1 µM)
- MIC (Trichophyton rubrum; Trichophyton rubrum, read-out: Pathogens MIC Trichophyton rubrum (TR)): 0.9 µg/mL (≈ 2.82 µM)
- MIC (Roseomonas mucosa (RM)): > 50 µg/mL
- MIC [6]: 16 µg/mL (≈ 50.1 µM)
- EC50 at 48 h [7]: 85 µg/mL (≈ 266 µM)
- EC50 (NoSpin HepaRG cells): 26.5 µg/mL (≈ 83 µM)
- MBC (Bacillus subtilis): 10 µg/mL (≈ 31.3 µM)
- MIC (Bacillus subtilis; [10]): 0.63 µg/mL (≈ 1.97 µM)
- MIC (Bacillus subtilis; [27]): 0.625 µg/mL (≈ 1.96 µM)
- MIC (Bacillus subtilis; [28]): 5 µg/mL (≈ 15.7 µM)
- MIC (Bacillus subtilis; [29]): 10 µg/mL (≈ 31.3 µM)
- MIC (Bacillus subtilis; [30]): 2.5 µg/mL (≈ 7.83 µM)
- MIC (Bacillus subtilis; [31]): 5 µg/mL (≈ 15.7 µM)
- MIC (Bacillus subtilis; strain B-41581, read-out: Bacillus subtilis MIC): 5 µg/mL (≈ 15.7 µM)
- MIC (Bacillus subtilis; [32]): 5 µg/mL (≈ 15.7 µM)
- MBC (Bacillus thuringiensis; [11]): 5 µg/mL (≈ 15.7 µM)
- MIC (Bacillus thuringiensis; ATCC10792, […]): 0.625 µg/mL (≈ 1.96 µM)
- MIC (Bacillus thuringiensis; [12]): 1.25 µg/mL (≈ 3.92 µM)
- MIC (Bacillus thuringiensis; strain B-1596): 1.25 µg/mL (≈ 3.92 µM)
- MBC [2]: > 150 µg/mL
- MIC [2]: 150 µg/mL (≈ 470 µM)
- MFC (Candida glabrata; C. glabrata strain #325): > 50 µg/mL
- MIC (Candida glabrata; C. glabrata strain #325): 25 µg/mL (≈ 78.3 µM)
- MIC (Candida glabrata; [33]): 12.5 µg/mL (≈ 39.2 µM)
- MIC (Candida glabrata; [14]): 12.5 µg/mL (≈ 39.2 µM)
- MIC [3]: 2.5 µg/mL (≈ 7.83 µM)
- MIC (N. gonorrhoeae; strain #167): 1.56 µg/mL (≈ 4.89 µM)
- MFC (C. albicans; [34]): 25 µg/mL (≈ 78.3 µM)
- MIC (C. albicans; [35]): 12.5 µg/mL (≈ 39.2 µM)
- MFC (C. albicans; [36]): 25 µg/mL (≈ 78.3 µM)
- MIC (C. albicans; [37]): 3.13 µg/mL (≈ 9.8 µM)
- MIC50 [4]: 4 µg/mL (≈ 12.5 µM)
- MIC [4, 15]: > 8 µg/mL
- MIC [4, 16]: 4 µg/mL (≈ 12.5 µM)
- MIC [4, 17]: 2 µg/mL (≈ 6.27 µM)
- MIC [4, 18]: 2 µg/mL (≈ 6.27 µM)
- MIC [4, 19]: 2 µg/mL (≈ 6.27 µM)
- MIC [4, 20]: 1.67 µg/mL (≈ 5.23 µM)
- MIC [4, 21]: 4 µg/mL (≈ 12.5 µM)
- MIC [4, 22]: 4 µg/mL (≈ 12.5 µM)
- MIC [4, 23]: 8 µg/mL (≈ 25.1 µM)
- MIC [4, 24]: 4 µg/mL (≈ 12.5 µM)
- MIC [4, 25]: > 8 µg/mL
- MIC [4, 26]: 1.67 µg/mL (≈ 5.23 µM)
- cell membrane damage of HepG2 cells (HepG2 cells): no cell membrane damage
- synergistic effect with 2-ketobutyrate [8]: synergistic effect
- MIC ([8]; with 200 μg/mL 2-ketobutyrate): 0.781 µg/mL
- MIC ([8]; with 800 μg/mL 2-ketobutyrate): less than 0.39 μg/mL
- MIC ([8]; without ketobutyrate): 3.124 µg/mL

Compound: Brc1cccc(Sc2c[nH]c3ccc(Br)cc23)c1 [Compound 174N, 5-bromo-3-((3-bromophenyl)thio)-1H-indole]
- MIC (Trichophyton rubrum; [9]): < 0.57 µg/mL
- EC50 (NoSpin HepaRG cells): 29.5 µg/mL (≈ 77 µM)
- MBC (Bacillus subtilis): 10 µg/mL (≈ 26.1 µM)
- MIC (Bacillus subtilis; [10]): 1.25 µg/mL (≈ 3.26 µM)
- MIC (Bacillus subtilis; [27]): 1.25 µg/mL (≈ 3.26 µM)
- MIC (Bacillus subtilis; [28]): 1.25 µg/mL (≈ 3.26 µM)
- MIC (Bacillus subtilis; [29]): 1.25 µg/mL (≈ 3.26 µM)
- MIC (Bacillus subtilis; [30]): 1.25 µg/mL (≈ 3.26 µM)
- MIC (Bacillus subtilis; [31]): 2.5 µg/mL (≈ 6.53 µM)
- MIC (Bacillus subtilis; [32]): 2.5 µg/mL (≈ 6.53 µM)
- MBC (Bacillus thuringiensis; [11]): 10 µg/mL (≈ 26.1 µM)
- MIC (Bacillus thuringiensis; ATCC10792, […]): 1.25 µg/mL (≈ 3.26 µM)
- MIC (Bacillus thuringiensis; [12]): 1.25 µg/mL (≈ 3.26 µM)
- MIC (Bacillus thuringiensis; strain B-1596): 2.5 µg/mL (≈ 6.53 µM)
- MBC [2]: > 150 µg/mL
- MIC [2]: 50 µg/mL (≈ 131 µM)
- MIC (Candida glabrata; C. glabrata strain #325): > 50 µg/mL
- MFC (Candida glabrata; [33]): 50 µg/mL (≈ 131 µM)
- MFC (Candida glabrata; [13]): 50 µg/mL (≈ 131 µM)
- MIC [3]: 1.25 µg/mL (≈ 3.26 µM)
- MIC (N. gonorrhoeae; strain #167): 1.56 µg/mL (≈ 4.07 µM)
- MFC (C. albicans; [34]): > 50 µg/mL
- MIC (C. albicans; [35]): 12.5 µg/mL (≈ 32.6 µM)
- MFC (C. albicans; [36]): 6.25 µg/mL (≈ 16.3 µM)
- MIC (C. albicans; [37]): 3.13 µg/mL (≈ 8.17 µM)
- MIC50 [4]: 4 µg/mL (≈ 10.4 µM)
- MIC [4, 15]: 8 µg/mL (≈ 20.9 µM)
- MIC [4, 16]: 4 µg/mL (≈ 10.4 µM)
- MIC [4, 17]: 6.67 µg/mL (≈ 17.4 µM)
- MIC [4, 18]: 6.67 µg/mL (≈ 17.4 µM)
- MIC [4, 19]: 3.33 µg/mL (≈ 8.69 µM)
- MIC [4, 20]: 3.67 µg/mL (≈ 9.58 µM)
- MIC [4, 21]: 4 µg/mL (≈ 10.4 µM)
- MIC [4, 22]: 4 µg/mL (≈ 10.4 µM)
- MIC [4, 23]: > 8 µg/mL
- MIC [4, 24]: 4 µg/mL (≈ 10.4 µM)
- MIC [4, 25]: > 8 µg/mL
- MIC [4, 26]: 3.33 µg/mL (≈ 8.69 µM)
